Test results reported in patent US10717733B2, “Haloallylamine indole and azaindole derivative inhibitors of lysyl oxidases and uses thereof” (PHARMAXIS LTD., priority 2016, dated 2020).
Where a name gives a salt, the structure may show the parent alone.

Legend:
Format in all cases: biochemical
Bovine LOX = Bovine LOX (Bos taurus (Bovine), UniProt P33072); assay: LOX inhibition, peroxidase-coupled Amplex Red amine oxidase assay; conditions: 30 min preincubation at 37° C., putrescine substrate
Description: (§1) Method to Determine the Ability of Compounds of the Invention to Inhibit LOX and LOXL1-4 from Different Sources
Lysyl oxidase (LOX) is an extracellular copper dependent enzyme which oxidizes peptidyl lysine and hydroxylysine residues in collagen and lysine residues in elastin to produce peptidyl alpha-aminoadipic-delta-semialdehydes. […] There are five LOX family members; these are LOX, LOXL1, LOXL2, LOXL3 and LOXL4. LOX and LOXL family members can be acquired as recombinant active proteins from commercial sources, or extracted from animal tissues like bovine aorta, tendons, pig skin; or prepared from cell cultures. The inhibitory effects of the compounds of the present invention were tested against the given LOX-LOXL preparation using a high-throughput coupled colorimetric method (Holt A. and Palcic M., A peroxidase-coupled continuous absorbance plate-reader assay for flavin monoamine oxidases, copper-containing amine oxidases and related enzymes. Nat. Protoc. 2006; 1: 2498-2505). The assay was developed using either 384 or 96 well format. Briefly, in a standard 384 well plate assay 25 μL of a dilution of any of the isoenzymes and orthologues in 1.2 M urea, 50 mM sodium borate buffer (pH 8.2) were added into each well in the presence of 1 μM mofegiline and 0.5 mM pargyline (to inhibit SSAO and MAO-B and MAO-A, respectively). […] of a reaction mixture containing twice the KM concentration of putrescine (Sigma Aldrich, e.g. 20 mM for LOX, or 10 mM for LOXL2 and LOXL3), 120 μM Amplex Red (Sigma Aldrich) and 1.5 U/mL horseradish peroxidase (Sigma Aldrich) prepared in 1.2 M urea, 50 mM sodium borate buffer (pH 8.2) were then added to the corresponding wells. The above volumes were doubled in the case of 96 wells plate. The fluorescence (RFU) was read every 2.5 min for 30 min at a range of temperatures from 37° to 45° C., excitation 565 nm and emission 590 (Optima; BMG labtech). The slope of the kinetics for each well was calculated using MARS data analysis software (BMG labtech) and this value was used to deduce the IC50 value (Dotmatics).

Human LOXL2 = Human LOXL2 (Homo sapiens (Human), UniProt Q9Y4K0); assay: LOXL2 inhibition, peroxidase-coupled Amplex Red amine oxidase assay; conditions: 30 min preincubation at 37° C., putrescine substrate
Description: as §1
Lysyl oxidase (LOX) is an extracellular copper dependent enzyme which oxidizes peptidyl lysine and hydroxylysine residues in collagen and lysine residues in elastin to produce peptidyl alpha-aminoadipic-delta-semialdehydes. […] There are five LOX family members; these are LOX, LOXL1, LOXL2, LOXL3 and LOXL4. LOX and LOXL family members can be acquired as recombinant active proteins from commercial sources, or extracted from animal tissues like bovine aorta, tendons, pig skin; or prepared from cell cultures. The inhibitory effects of the compounds of the present invention were tested against the given LOX-LOXL preparation using a high-throughput coupled colorimetric method (Holt A. and Palcic M., A peroxidase-coupled continuous absorbance plate-reader assay for flavin monoamine oxidases, copper-containing amine oxidases and related enzymes. Nat. Protoc. 2006; 1: 2498-2505). The assay was developed using either 384 or 96 well format. Briefly, in a standard 384 well plate assay 25 μL of a dilution of any of the isoenzymes and orthologues in 1.2 M urea, 50 mM sodium borate buffer (pH 8.2) were added into each well in the presence of 1 μM mofegiline and 0.5 mM pargyline (to inhibit SSAO and MAO-B and MAO-A, respectively). Test compounds were dissolved in DMSO and tested in a Concentration Response Curve (CRC) with 11 data points, typically in the micromolar or nanomolar range after incubation with the enzyme for 30 min at 37° C. Twenty five L of a reaction mixture containing twice the KM concentration of putrescine (Sigma Aldrich, e.g. 20 mM for LOX, or 10 mM for LOXL2 and LOXL3), 120 μM Amplex Red (Sigma Aldrich) and 1.5 U/mL horseradish peroxidase (Sigma Aldrich) prepared in 1.2 M urea, 50 mM sodium borate buffer (pH 8.2) were then added to the corresponding wells. The above volumes were doubled in the case of 96 wells plate. The fluorescence (RFU) was read every 2.5 min for 30 min at a range of temperatures from 37° to 45° C., excitation 565 nm and emission 590 (Optima; BMG labtech). The slope of the kinetics for each well was calculated using MARS data analysis software (BMG labtech) and this value was used to deduce the IC50 value (Dotmatics).

[1] = target: human recombinant SSAO/VAP-1 (Homo sapiens (Human), UniProt Q16853); assay: Inhibition of human recombinant SSAO/VAP-1 amine oxidase activity; conditions: 30 min preincubation at 37° C., 600 μM benzylamine
Method: Method to Determine the Ability of Compounds of Formula I to Inhibit Human Recombinant SSAO/VAP-1
Human recombinant SSAO/VAP-1 amine oxidase activity was determined using the coupled colorimetric method as described for monoamine oxidase, copper-containing amine oxidases and related enzymes (Holt A. and Palcic M., A peroxidase-coupled continuous absorbance plate-reader assay for flavin monoamine oxidases, copper-containing amine oxidases and related enzymes. Nat Protoc 2006; 1: 2498-2505). Briefly, a cloned cDNA template corresponding to residues 34-763 of human SSAO/VAP-1, and incorporating a mouse Ig kappa (κ) signal sequence, N-terminal flag epitope tag and tobacco etch virus (TEV) cleavage site, was assembled in a mammalian expression vector (pLO-CMV) by Geneart AG. This vector containing human SSAO/VAP-1 residues was transfected into CHO-K1 glycosylation mutant cell line, Lec 8. A clone stably expressing human SSAO/VAP-1 was isolated and cultured in large scale. Active human SSAO/VAP-1 was purified and recovered using immunoaffinity chromatography. This was used as the source for SSAO/VAP-1 activity. A high-throughput colorimetric assay was developed using either 96 or 384 well format. Briefly, in a standard 96 well plate assay 50 μL of purified human SSAO/VAP-1 (0.25 μg/mL) in 0.1 M sodium phosphate buffer (pH 7.4) was added into each well. Test compounds were dissolved in DMSO and tested in a Concentration Response Curve (CRC) with 4-11 data points, typically in the micromolar or nanomolar range after incubation with human SSAO/VAP-1 for 30 min at 37° C. After 30 min incubation, 50 μL of the reaction mixture containing 600 μM benzylamine (Sigma Aldrich), 120 μM Amplex Red (Sigma Aldrich) and 1.5 U/mL horseradish peroxidase (Sigma Aldrich) prepared in 0.1 M sodium phosphate buffer (pH 7.4) were added to the corresponding well. The fluorescence unit (RFU) was read every 2.5 min for 30 min at 37° C. excitation 565 nm and emission 590 (Optima; BMG labtech). The slope of the kinetics for each well was calculated using MARS data analysis software (BMG labtech) and this value was used to deduce the IC50 value (Dotmatics).

Recombinant human MAO-B = Recombinant human MAO-B (Homo sapiens (Human), UniProt P27338); assay: Inhibition of human recombinant MAO-B; conditions: benzylamine 100 μM
Method: Method to Determine the Ability of Compounds of Formula I to Inhibit Human Recombinant MAO-B
The specificity of the compounds of this invention was tested by determining their ability to inhibit MAO-B activities in vitro. Recombinant human MAO-B (0.06 mg/mL; Sigma Aldrich) was used as source of MAO-B enzyme activities. The assay was performed in a similar way as for human SSAO/VAP-1 (Example 66) except, the substrate benzylamine was used at 100 μM.

Chain of Human LOXL2 (Q9Y4K0 26-774): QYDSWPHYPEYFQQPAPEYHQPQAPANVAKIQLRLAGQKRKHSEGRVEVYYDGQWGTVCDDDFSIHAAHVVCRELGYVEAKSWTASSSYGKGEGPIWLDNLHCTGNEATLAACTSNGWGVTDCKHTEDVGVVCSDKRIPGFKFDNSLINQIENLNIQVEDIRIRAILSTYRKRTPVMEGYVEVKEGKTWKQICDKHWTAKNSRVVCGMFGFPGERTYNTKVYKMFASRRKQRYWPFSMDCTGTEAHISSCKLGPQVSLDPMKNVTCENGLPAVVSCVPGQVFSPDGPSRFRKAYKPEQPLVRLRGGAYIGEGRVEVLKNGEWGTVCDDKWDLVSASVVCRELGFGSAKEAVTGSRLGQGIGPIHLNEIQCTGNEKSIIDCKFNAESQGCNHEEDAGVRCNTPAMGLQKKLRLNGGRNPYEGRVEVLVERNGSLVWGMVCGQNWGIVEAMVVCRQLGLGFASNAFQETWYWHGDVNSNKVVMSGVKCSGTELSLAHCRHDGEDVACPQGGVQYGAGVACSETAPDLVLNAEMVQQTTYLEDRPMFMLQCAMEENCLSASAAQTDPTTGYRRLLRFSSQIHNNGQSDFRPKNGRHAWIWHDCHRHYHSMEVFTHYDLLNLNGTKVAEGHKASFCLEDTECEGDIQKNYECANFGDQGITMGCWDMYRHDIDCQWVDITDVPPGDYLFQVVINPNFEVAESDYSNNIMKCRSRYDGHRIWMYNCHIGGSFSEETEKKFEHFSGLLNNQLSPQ
Chain of Recombinant human MAO-B (P27338 whole entry): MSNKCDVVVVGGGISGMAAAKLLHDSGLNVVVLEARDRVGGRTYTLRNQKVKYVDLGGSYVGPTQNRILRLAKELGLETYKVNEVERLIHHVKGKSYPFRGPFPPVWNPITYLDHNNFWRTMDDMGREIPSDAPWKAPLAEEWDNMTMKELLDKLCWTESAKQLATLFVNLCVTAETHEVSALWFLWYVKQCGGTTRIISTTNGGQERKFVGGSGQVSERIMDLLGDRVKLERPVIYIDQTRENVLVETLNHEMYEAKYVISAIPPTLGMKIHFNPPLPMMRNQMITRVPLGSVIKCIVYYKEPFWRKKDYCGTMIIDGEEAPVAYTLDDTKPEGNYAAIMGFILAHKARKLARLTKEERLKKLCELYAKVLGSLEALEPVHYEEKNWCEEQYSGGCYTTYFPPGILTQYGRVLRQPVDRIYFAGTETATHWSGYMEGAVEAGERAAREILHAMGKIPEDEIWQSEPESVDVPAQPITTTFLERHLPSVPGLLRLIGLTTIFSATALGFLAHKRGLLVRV
Chain of Bovine LOX (P33072 170-418): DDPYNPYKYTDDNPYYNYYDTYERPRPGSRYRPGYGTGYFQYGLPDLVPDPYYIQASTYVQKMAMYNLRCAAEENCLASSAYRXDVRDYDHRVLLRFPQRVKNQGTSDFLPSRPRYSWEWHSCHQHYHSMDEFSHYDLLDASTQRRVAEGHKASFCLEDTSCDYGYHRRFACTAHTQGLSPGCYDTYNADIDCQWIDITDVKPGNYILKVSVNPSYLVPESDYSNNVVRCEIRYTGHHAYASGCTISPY
Chain of human recombinant SSAO/VAP-1 (Q16853 34-763): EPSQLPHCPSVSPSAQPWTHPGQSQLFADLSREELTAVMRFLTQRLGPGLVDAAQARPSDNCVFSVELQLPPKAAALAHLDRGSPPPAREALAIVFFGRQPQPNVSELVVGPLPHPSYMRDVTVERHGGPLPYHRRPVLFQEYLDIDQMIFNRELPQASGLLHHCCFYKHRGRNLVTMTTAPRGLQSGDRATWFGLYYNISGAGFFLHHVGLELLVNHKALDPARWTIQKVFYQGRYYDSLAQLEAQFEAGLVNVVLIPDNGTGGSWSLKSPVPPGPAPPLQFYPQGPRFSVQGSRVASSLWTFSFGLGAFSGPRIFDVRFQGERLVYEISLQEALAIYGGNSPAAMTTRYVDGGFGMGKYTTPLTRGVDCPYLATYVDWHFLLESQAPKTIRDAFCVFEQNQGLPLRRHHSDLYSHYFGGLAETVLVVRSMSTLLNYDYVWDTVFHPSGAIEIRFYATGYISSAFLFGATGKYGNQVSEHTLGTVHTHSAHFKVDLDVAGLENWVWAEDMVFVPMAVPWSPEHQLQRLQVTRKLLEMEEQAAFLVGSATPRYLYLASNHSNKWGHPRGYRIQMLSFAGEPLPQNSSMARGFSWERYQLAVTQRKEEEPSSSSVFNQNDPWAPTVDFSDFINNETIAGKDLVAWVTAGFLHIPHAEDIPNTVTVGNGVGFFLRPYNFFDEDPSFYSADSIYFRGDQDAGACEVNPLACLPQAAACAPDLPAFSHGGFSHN

With NC/C=C(\F)Cn1cc(-c2ccc(F)cc2)c2ccccc21 [Compound 1, (Z)-3-fluoro-4-(3-(4-fluorophenyl)-1H-indol-1-yl)but-2-en-1-amine] the IC50 (Bovine LOX) was greater than 300 nM, the IC50 (Human LOXL2) was less than 300 nM and the IC50 [1] was greater than 3000 nM. For the same compound, the IC50 (Recombinant human MAO-B) was greater than 3000 nM.
Work on Cc1c(-c2cccc(S(=O)(=O)N(C)C)c2)c2ccccc2n1C/C(F)=C/CN [Compound 2, (Z)-3-(1-(4-amino-2-fluorobut-2-en-1-yl)-2-methyl-1H-indol-3-yl)-N,N-dimethylbenzenesulfonamide] yielded an IC50 (Bovine LOX) greater than 300 nM, an IC50 (Human LOXL2) of less than 300 nM and an IC50 [1] greater than 3000 nM. The IC50 (Recombinant human MAO-B) was greater than 3000 nM.
Cc1c(-c2ccc(S(=O)(=O)N(C)C)cc2)c2ccccc2n1C/C(F)=C/CN [Compound 3, (Z)-4-(1-(4-amino-2-fluorobut-2-en-1-yl)-2-methyl-1H-indol-3-yl)-N,N-dimethylbenzenesulfonamide] was tested, and the IC50 (Bovine LOX) was greater than 300 nM, the IC50 (Human LOXL2) was less than 300 nM and the IC50 [1] was greater than 3000 nM. It also gave an IC50 (Recombinant human MAO-B) greater than 3000 nM.
For Cc1c(-c2cccc(S(=O)(=O)N(C)C)c2)c2cccnc2n1C/C(F)=C/CN [Compound 4, (Z)-3-(1-(4-amino-2-fluorobut-2-en-1-yl)-2-methyl-1H-pyrrolo[2,3-b]pyridin-3-yl)-N,N-dimethylbenzenesulfonamide], the IC50 (Bovine LOX) was greater than 300 nM, the IC50 (Human LOXL2) was less than 300 nM and the IC50 [1] was greater than 3000 nM. It also gave an IC50 (Recombinant human MAO-B) greater than 3000 nM.
With COC(=O)c1ccc2c(c1)c(-c1cccc(S(=O)(=O)N(C)C)c1)c(C)n2C/C(F)=C/CN [Compound 5, Hydrochloride] the IC50 (Bovine LOX) was greater than 300 nM, the IC50 (Human LOXL2) was less than 300 nM and the IC50 [1] was greater than 3000 nM. It also gave an IC50 (Recombinant human MAO-B) greater than 3000 nM.
Compound Cc1c(-c2cccc(S(=O)(=O)N(C)C)c2)c2cc(C(=O)N(C)C)ccc2n1C/C(F)=C/CN [Compound 6, (Z)-1-(4-amino-2-fluorobut-2-en-1-yl)-3-(3-(N,N-dimethylsulfamoyl)phenyl)-N,N,2-trimethyl-1H-indole-5-carboxamide] has an IC50 (Bovine LOX) greater than 300 nM, an IC50 (Human LOXL2) of less than 300 nM and an IC50 [1] greater than 3000 nM. It also gave an IC50 (Recombinant human MAO-B) greater than 3000 nM.
With COC(=O)c1ccc2c(-c3cccc(S(=O)(=O)N(C)C)c3)c(C)n(C/C(F)=C/CN)c2c1 [Compound 7, (Z)-methyl 1-(4-amino-2-fluorobut-2-en-1-yl)-3-(3-(N,N-dimethylsulfamoyl)phenyl)-2-methyl-1H-indole-6-carboxylate] the IC50 (Bovine LOX) was greater than 300 nM, the IC50 (Human LOXL2) was less than 300 nM and the IC50 [1] was greater than 3000 nM. For the same compound, the IC50 (Recombinant human MAO-B) was greater than 3000 nM.
Compound CCS(=O)(=O)c1cccc(-c2c(C(C)C)n(C/C(F)=C/CN)c3ccc(C)nc23)c1 [Compound 113, (Z)-4-(3-(3-(ethylsulfonyl)phenyl)-2-isopropyl-5-methyl-1H-pyrrolo[3,2-b]pyridin-1-yl)-3-fluorobut-2-en-1-amine Dihydrochloride] has an IC50 (Bovine LOX) greater than 300 nM and an IC50 (Human LOXL2) of less than 300 nM.
CCS(=O)(=O)c1cccc(-c2c(C)n(C/C(F)=C/CN)c3ccc(C)nc23)c1 [Compound 114, (Z)-4-(3-(3-(ethylsulfonyl)phenyl)-2,5-dimethyl-1H-pyrrolo[3,2-b]pyridin-1-yl)-3-fluorobut-2-en-1-amine Dihydrochloride] was tested, and the IC50 (Bovine LOX) was greater than 300 nM and the IC50 (Human LOXL2) was less than 300 nM.
With Cc1c(-c2cccc(S(C)(=O)=O)c2)c2nc(CF)ccc2n1C/C(F)=C/CN [Compound 115, (Z)-3-fluoro-4-(5-(fluoromethyl)-2-methyl-3-(3-(methylsulfonyl)phenyl)-1H-pyrrolo[3,2-b]pyridin-1-yl)but-2-en-1-amine Dihydrochloride] the IC50 (Bovine LOX) was greater than 300 nM and the IC50 (Human LOXL2) was less than 300 nM.
Cc1c(-c2cccc(S(C)(=O)=O)c2)c2nc(C(C)(C)O)ccc2n1C/C(F)=C/CN [Compound 116, (Z)-2-(1-(4-amino-2-fluorobut-2-en-1-yl)-2-methyl-3-(3-(methylsulfonyl)phenyl)-1H-pyrrolo[3,2-b]pyridin-5-yl)propan-2-ol Dihydrochloride] was tested, and the IC50 (Bovine LOX) was greater than 300 nM and the IC50 (Human LOXL2) was less than 300 nM.
Work on Cc1c(-c2cccc(S(=O)(=O)C(C)C)c2)c2nc(C(C)(C)O)ccc2n1C/C(F)=C/CN [Compound 117, (Z)-2-(1-(4-amino-2-fluorobut-2-en-1-yl)-3-(3-(isopropylsulfonyl)phenyl)-2-methyl-1H-pyrrolo[3,2-b]pyridin-5-yl)propan-2-ol Dihydrochloride] yielded an IC50 (Bovine LOX) greater than 300 nM and an IC50 (Human LOXL2) of less than 300 nM.
